Test results as given in patent US20030133987A1, “Drug nanoparticles from template emulsions” (priority 2002, published 2003).

Test: In-vitro dissolution, standard protocol according to USP 24 monographs
Assay type: physicochemical
Conditions: HPLC or UV/VIS detection, control (drug as received) in parenthesis
Experimental: The dissolution progress was measured after 5, 10, 15, and 60 minutes using either High Pressure Liquid Chromatography (HPLC) or UV/VIS detection as the analytical tools. […] For comparison, the corresponding data for the controls are given in parenthesis.

## CC(=O)N1CCN(c2ccc(OCC3COC(Cn4ccnc4)(c4ccc(Cl)cc4Cl)O3)cc2)CC1 (stereo not shown) [Ketoconazole, ketoconazole]
5 min
  percent of dissolved sample, 5 min: 31%
10 min
  percent of dissolved sample, 10 min: 41%
15 min
  percent of dissolved sample, 15 min: 48%
60 min
  percent of dissolved sample, 60 min: (100%)
